Columns and labels:
[1] = tested on: ENR+CD organoids (ISC to Paneth cell differentiation); assay: Primary screen: basal (non-stimulated) lysozyme secretion LYZ.NS, 2.5-D 384-well ENR+CD organoid differentiation; assay type: cell-based, mouse; conditions: primary screen; for Z.LYZ.NS: standard z score
Excerpt: (§1) High-throughput screening.

[2] = tested on: ENR+CD organoids (ISC to Paneth cell differentiation); assay: Primary screen: CCh-stimulated lysozyme secretion LYZ.S, 2.5-D 384-well ENR+CD organoid differentiation; assay type: cell-based, mouse; conditions: primary screen
Excerpt: as §1

ENR+CD organoids = assay: Primary screen: ATP (CellTiter-Glo 3D, CTG) cell number/viability, 2.5-D 384-well ENR+CD organoids; conditions: primary screen; for Z.CTG: standard z score;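 for all read-outs here: compounds given at plating and again on day 3 over a 6-day differentiation from ENR+CV stem-cell-enriched precursors, ATP measured on day 6, plate median as control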
[3] = dose 0.08 uM, FC relative to plate median
[4] = dose 0.40 uM, FC relative to plate median
[5] = dose 2.00 uM, FC relative to plate median
[6] = dose 10.00 uM, FC relative to plate median
[7] = dose 0.08 uM, FC vs plate median
[8] = dose 0.40 uM, FC vs plate median
[9] = dose 2.00 uM, FC vs plate median
[10] = dose 10.00 uM, FC vs plate median

Question: Which results are given for `O=C(NC(Cc1cc(=O)[nH]c2ccccc12)C(=O)O)c1ccc(Cl)cc1` (stereo not drawn) [Rebamipide]?
Answer: Dose.FC.LYZ.NS [1, 3]: 0.096 log2 fold change; Z.LYZ.NS ([1]; dose 0.08 uM): 0.832; Dose.FC.LYZ.NS [1, 4]: −0.091 log2 fold change; Z.LYZ.NS ([1]; dose 0.40 uM): −0.793; Dose.FC.LYZ.NS [1, 5]: −0.090 log2 fold change; Z.LYZ.NS ([1]; dose 2.00 uM): −0.780; Dose.FC.LYZ.NS [1, 6]: −0.089 log2 fold change; Z.LYZ.NS ([1]; dose 10.00 uM): −0.773; Dose.FC.LYZ.S [2, 3]: −0.014 log2 fold change; Dose.FC.LYZ.S [2, 4]: 0.014 log2 fold change; Dose.FC.LYZ.S [2, 5]: −0.106 log2 fold change; Dose.FC.LYZ.S [2, 6]: −0.063 log2 fold change; Dose.FC.CTG (ENR+CD organoids; [3]): −0.256 log2 fold change; Dose.FC.CTG (ENR+CD organoids; [4]): −0.510 log2 fold change; Dose.FC.CTG (ENR+CD organoids; [5]): −0.203 log2 fold change; Dose.FC.CTG (ENR+CD organoids; [6]): −0.281 log2 fold change

Question: Which results are given for `CNC(=O)[C@H](Cc1c[nH]c2ccccc12)NC(=O)[C@@H](CC(=O)NO)CC(C)C` [Ilomastat (GM6001, Galardin)]?
Answer: Dose.FC.LYZ.NS (log2 fold change) ([1]; dose 0.08 uM): 0.055; Z.LYZ.NS (standard z score) ([1]; dose 0.08 uM): 0.482; Dose.FC.LYZ.NS (log2 fold change) ([1]; dose 0.40 uM): −0.011; Z.LYZ.NS (standard z score) ([1]; dose 0.40 uM): −0.092; Dose.FC.LYZ.NS (log2 fold change) ([1]; dose 2.00 uM): 0.007; Z.LYZ.NS (standard z score) ([1]; dose 2.00 uM): 0.064; Dose.FC.LYZ.NS (log2 fold change) ([1]; dose 10.00 uM): −0.106; Z.LYZ.NS (standard z score) ([1]; dose 10.00 uM): −0.919; Dose.FC.LYZ.S (log2 fold change) ([2]; dose 0.08 uM): 0.214; Dose.FC.LYZ.S (log2 fold change) ([2]; dose 0.40 uM): 0.117; Dose.FC.LYZ.S (log2 fold change) ([2]; dose 2.00 uM): 0.024; Dose.FC.LYZ.S (log2 fold change) ([2]; dose 10.00 uM): −0.078; Dose.FC.CTG (log2 fold change) (ENR+CD organoids; dose 0.08 uM): 0.197; Z.CTG (standard z score) (ENR+CD organoids; dose 0.08 uM): 0.470; Dose.FC.CTG (log2 fold change) (ENR+CD organoids; dose 0.40 uM): 0.163; Z.CTG (standard z score) (ENR+CD organoids; dose 0.40 uM): 0.389; Dose.FC.CTG (log2 fold change) (ENR+CD organoids; dose 2.00 uM): 0.091; Z.CTG (standard z score) (ENR+CD organoids; dose 2.00 uM): 0.216; Dose.FC.CTG (log2 fold change) (ENR+CD organoids; dose 10.00 uM): −0.110; Z.CTG (standard z score) (ENR+CD organoids; dose 10.00 uM): −0.264

Question: How did the Z.LYZ.NS ([1]; dose 0.08 uM) turn out when `C/C(=N\NC(=S)N1CCC1)c1ccccn1` [NSC 319726] was run?
Answer: 0.982

Question: And the Z.LYZ.NS ([1]; dose 0.40 uM)?
Answer: −0.780

Question: What about the Z.LYZ.NS ([1]; dose 2.00 uM) of the same molecule?
Answer: −1.323

Question: What about the Z.LYZ.NS ([1]; dose 10.00 uM) of the same molecule?
Answer: −1.992

Question: What about the Dose.FC.LYZ.NS [1, 7] of the same molecule?
Answer: 0.113 log2 fold change

Question: What about the Dose.FC.LYZ.NS [1, 8] of the same molecule?
Answer: −0.090 log2 fold change

Question: What about the Dose.FC.LYZ.NS [1, 9] of the same molecule?
Answer: −0.152 log2 fold change

Question: And the Dose.FC.LYZ.NS [1, 10]?
Answer: −0.229 log2 fold change

Question: And the Dose.FC.LYZ.S [2, 7]?
Answer: 0.060 log2 fold change

Question: What about the Dose.FC.LYZ.S [2, 8] of the same molecule?
Answer: −0.035 log2 fold change

Question: And the Dose.FC.LYZ.S [2, 9]?
Answer: −0.248 log2 fold change

Question: What about the Dose.FC.LYZ.S [2, 10] of the same molecule?
Answer: −0.327 log2 fold change

Question: What about the Z.CTG (ENR+CD organoids; dose 0.08 uM) of the same molecule?
Answer: 0.316

Question: What about the Z.CTG (ENR+CD organoids; dose 0.40 uM) of the same molecule?
Answer: −0.441

Question: What about the Z.CTG (ENR+CD organoids; dose 2.00 uM) of the same molecule?
Answer: −1.068

Question: And the Z.CTG (ENR+CD organoids; dose 10.00 uM)?
Answer: −4.555

Question: What about the Dose.FC.CTG (ENR+CD organoids; [7]) of the same molecule?
Answer: 0.132 log2 fold change

Question: What about the Dose.FC.CTG (ENR+CD organoids; [8]) of the same molecule?
Answer: −0.185 log2 fold change

Question: And the Dose.FC.CTG (ENR+CD organoids; [9])?
Answer: −0.447 log2 fold change

Question: And the Dose.FC.CTG (ENR+CD organoids; [10])?
Answer: −1.907 log2 fold change

Question: With `CCc1c(C(=O)NCCc2ccc(N3CCCCC3)cc2)[nH]c2ccc(Cl)cc12` [Org 27569] as the molecule, how does the Z.LYZ.NS ([1]; dose 0.08 uM) read?
Answer: 1.060

Question: What about the Z.LYZ.NS ([1]; dose 0.40 uM) of the same molecule?
Answer: 0.445

Question: And the Z.LYZ.NS ([1]; dose 2.00 uM)?
Answer: 0.683

Question: And the Z.LYZ.NS ([1]; dose 10.00 uM)?
Answer: 0.248

Question: And the Dose.FC.LYZ.NS [1, 7]?
Answer: 0.122 log2 fold change

Question: And the Dose.FC.LYZ.NS [1, 8]?
Answer: 0.051 log2 fold change

Question: And the Dose.FC.LYZ.NS [1, 9]?
Answer: 0.078 log2 fold change

Question: And the Dose.FC.LYZ.NS [1, 10]?
Answer: 0.029 log2 fold change

Question: What about the Dose.FC.LYZ.S [2, 7] of the same molecule?
Answer: 0.174 log2 fold change

Question: And the Dose.FC.LYZ.S [2, 8]?
Answer: 0.032 log2 fold change

Question: And the Dose.FC.LYZ.S [2, 9]?
Answer: 0.059 log2 fold change

Question: What about the Dose.FC.LYZ.S [2, 10] of the same molecule?
Answer: 0.001 log2 fold change

Question: And the Z.CTG (ENR+CD organoids; dose 0.08 uM)?
Answer: 0.663

Question: What about the Z.CTG (ENR+CD organoids; dose 0.40 uM) of the same molecule?
Answer: 0.173

Question: What about the Z.CTG (ENR+CD organoids; dose 2.00 uM) of the same molecule?
Answer: 0.865

Question: What about the Z.CTG (ENR+CD organoids; dose 10.00 uM) of the same molecule?
Answer: 0.646

Question: And the Dose.FC.CTG (ENR+CD organoids; [7])?
Answer: 0.278 log2 fold change

Question: What about the Dose.FC.CTG (ENR+CD organoids; [8]) of the same molecule?
Answer: 0.072 log2 fold change

Question: What about the Dose.FC.CTG (ENR+CD organoids; [9]) of the same molecule?
Answer: 0.362 log2 fold change

Question: What about the Dose.FC.CTG (ENR+CD organoids; [10]) of the same molecule?
Answer: 0.270 log2 fold change

Question: How did the Dose.FC.LYZ.NS [1, 3] turn out when `Cl.NC(=O)c1cnc(N[C@@H]2CCCC[C@@H]2N)nc1Nc1cccc(-n2nccn2)c1` [PRT062607 (P505-15, BIIB057) HCl] was run?
Answer: 0.004 log2 fold change

Question: And the Z.LYZ.NS ([1]; dose 0.08 uM)?
Answer: 0.037

Question: What about the Dose.FC.LYZ.NS [1, 4] of the same molecule?
Answer: 0.022 log2 fold change

Question: What about the Z.LYZ.NS ([1]; dose 0.40 uM) of the same molecule?
Answer: 0.194

Question: What about the Dose.FC.LYZ.NS [1, 5] of the same molecule?
Answer: −0.032 log2 fold change

Question: And the Z.LYZ.NS ([1]; dose 2.00 uM)?
Answer: −0.280

Question: And the Dose.FC.LYZ.NS [1, 6]?
Answer: −0.211 log2 fold change

Question: And the Z.LYZ.NS ([1]; dose 10.00 uM)?
Answer: −1.837

Question: And the Dose.FC.LYZ.S [2, 3]?
Answer: −0.033 log2 fold change

Question: And the Dose.FC.LYZ.S [2, 4]?
Answer: 0.122 log2 fold change

Question: And the Dose.FC.LYZ.S [2, 5]?
Answer: −0.123 log2 fold change

Question: And the Dose.FC.LYZ.S [2, 6]?
Answer: −0.298 log2 fold change

Question: And the Dose.FC.CTG (ENR+CD organoids; [3])?
Answer: −0.092 log2 fold change

Question: What about the Z.CTG (ENR+CD organoids; dose 0.08 uM) of the same molecule?
Answer: −0.219

Question: What about the Dose.FC.CTG (ENR+CD organoids; [4]) of the same molecule?
Answer: 0.080 log2 fold change

Question: And the Z.CTG (ENR+CD organoids; dose 0.40 uM)?
Answer: 0.191

Question: And the Dose.FC.CTG (ENR+CD organoids; [5])?
Answer: −0.075 log2 fold change

Question: And the Z.CTG (ENR+CD organoids; dose 2.00 uM)?
Answer: −0.179

Question: And the Dose.FC.CTG (ENR+CD organoids; [6])?
Answer: −0.330 log2 fold change

Question: What about the Z.CTG (ENR+CD organoids; dose 10.00 uM) of the same molecule?
Answer: −0.788
